From paper PMC11588265, “Auto QSAR-based active learning docking for hit identification of potential inhibitors of Plasmodium falciparum Hsp90 as antimalarial agents” (PLOS ONE, 2024)
“And” between values parts separate entries of the source, which are not always exact repeats. Equal values may be shown once. Read-outs that look alike come from different tables or passages of the source. One block for each molecule: values may come before it.

Assays:
P. falciparum 3D7 = conditions: cited from earlier work
HepG2 = tested on: HepG2; design: method as in Everson et al., 2021; conditions: ref Everson et al., 2021, cited from earlier work
[1] = tested on: human fibroblast cell line; design: method as in Everson et al., 2021; conditions: ref Everson et al., 2021, cited from earlier work
[2] = tested on: Chinese Hamster Ovarian (CHO) cells; assay: In vitro cytotoxicity, MTT assay, CHO cells; assay type: cell-based; conditions: for IC50: CHO cells, MTT, 48 h, read-out: In vitro IC50 Mammalian cells; for Mammalian cells (SI): selectivity index, CHO vs PfNF54
Method: (§1) Selectivity of the compounds for the parasites was determined using two cytotoxicity assays both of which were conducted at the H3D Centre. Compounds were screened against the mammalian cells, Chinese Hamster Ovarian (CHO) and hepatocellular carcinoma (HepG2), using the 3-(4,5-dimethylthiazol-2-yl)-2,5-diphenyltetrazoliumbromide (MTT) assay. Cells were plated to a density of 10^5 cells/well in 96-well plates and allowed to attach for 24h. After that compounds were added at various concentrations from 50μM to 16nM and the cells incubated for a further 48h. Emetine was used as the control. After that MTT was added and plates were read 4h later. ‘‘Survival” was plotted against concentration and the IC50-values were obtained using a non-linear dose-response curve fitting analysis via the Dotmatics software platform.

[3] = tested on: hepatocellular carcinoma (HepG2); assay: In vitro cytotoxicity, MTT assay, HepG2 cells; assay type: cell-based, human; conditions: for IC50: HepG2 cells, MTT, 48 h; for HepG2 (SI): selectivity index, HepG2 vs PfNF54
Method: as §1

[4] = tested on: P. falciparum NF54 strain; assay: In vitro anti-Plasmodium assay (parasite lactate dehydrogenase); assay type: cell-based; conditions: P. falciparum NF54 drug-sensitive strain, read-out: In vitro IC50 PfNF54
Method: In vitro anti-Plasmodial assays were conducted at the H3D testing centre at the University of Cape Town. All 15 commercially available compounds were evaluated for anti-Plasmodium activity using a parasite lactate dehydrogenase assay as a marker for parasite survival, as previously described by. Briefly, the parasites were synchronized at the ring stage using d-sorbitol in water. Approximately 2 mg/mL stock solutions of reference drugs, chloroquine and artesunate, were prepared in water and DMSO respectively then stored in -20°C. Test compounds and reference drugs were serially diluted to give 10 concentrations with a final volume of 100 μL in each well. Parasites were incubated in the presence of the compounds at 37°C under hypoxic conditions (4% CO2 and 3% O2 in N2) for 72 h. The absorbance was measured at 620 nm on a microplate reader. Survival was plotted against concentration and the IC50-values were obtained using a non-linear dose-response curve fitting analysis via the Dotmatics software platform.

PfHsp90-NTD = PfHsp90-NTD (Plasmodium falciparum, UniProt Q8IC05); assay: Surface plasmon resonance (MP-SPR) binding to immobilized PfHsp90-NTD
Method: The NTD of PfHsp90 was expressed and purified as described in [29] and 20μg/ml of the protein was used to study the binding affinities of selected ligands using BioNavis Navi 420A ILVES multi-parametric surface plasmon resonance (MP-SPR) system (BioNavis, Finland) as previously described. Briefly, PfHsp90-NTD was immobilized to a Carboxymethyl dextran coated sensor slide (BioNavis SPR102- CMD-3D). The sensor slide was activated with 0.1 M EDC/0.05 M NHS. At pH 5, PfHsp90-NTD suspended in 5 mM of sodium acetate was immobilized on one channel of the 3 CMD chip. 1 M ethanolamine HCl was used to deactivate the chip by removing excess NHS = EDC, and the sensor cleaned with NaCl/NaOH unspecific binding molecules. Varying concentrations (0-2000/5000 nM) of compounds FTN-T2 and FTN-T5 were injected and introduced to the flow cell, allowing binding to the surface. Data Viewer (BioNavis, Finland) and Trace Drawer software version 1.8 (Ridgeview instruments, Uppsala, Sweden) were used to process and analyze the steady-state equilibrium constant data and estimate the binding affinities.

Plasmodium = conditions: known inhibitor; ref (11); read-out: anti-Plasmodium IC50; cited from earlier work
[5] = P. falciparum 3D7, chloroquine-sensitive strain, ref Everson et al., 2021, read-out: In vitro IC50 Pf3D7
[6] = Plasmodium falciparum, NF54, 72 h

Sequence of PfHsp90-NTD (Q8IC05 entry or part of it): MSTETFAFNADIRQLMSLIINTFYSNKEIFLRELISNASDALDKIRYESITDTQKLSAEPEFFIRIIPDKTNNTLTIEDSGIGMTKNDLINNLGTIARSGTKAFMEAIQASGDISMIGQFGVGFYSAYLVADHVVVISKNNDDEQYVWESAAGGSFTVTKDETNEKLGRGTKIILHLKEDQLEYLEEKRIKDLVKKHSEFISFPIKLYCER

SMILES: O=C(NCc1ccc2c(c1)OCO2)C1CCN(c2ncnc3onc(-c4cccc(F)c4)c23)CC1 [Compound 7]
IC50 (P. falciparum 3D7; [5]): 0.98 ± 0.654 µM

SMILES: O=C(N[C@H]1CCc2ccccc21)C1CCN(c2ncccc2-c2nc(-c3ccccc3)no2)CC1 [Compound 10]
IC50 (HepG2; HepG2, read-out: In vitro IC50 HepG2): > 24 µM | HepG2 (SI) (HepG2; selectivity index): > 21 | IC50 ([1]; human fibroblast cell line, read-out: In vitro IC50 Mammalian cells): > 24 µM | Mammalian cells (SI) ([1]; selectivity index): > 21 | IC50 (P. falciparum 3D7; [5]): 1.11 ± 0.97 µM

IC50 [4, 6]: 4.49 ± 1.51 µM | Kd (PfHsp90-NTD; SPR, immobilized PfHsp90-NTD, read-out: equilibrium constant denoting affinity KD): 0.007 µM and 0.00711 µM
SMILES: Nc1ncnc2c1nc(Br)n2[C@@H]1O[C@H](CO)[C@@H](O)[C@H]1O [FTN-T2]
IC50 ([2]; Cricetulus griseus): > 50 µM | IC50 ([3]; Homo sapiens): 1.5 µM | HepG2 (SI) [3]: 0

IC50 ([4]; 72 h): 1.44 ± 0.5 µM | IC50 [4, 6]: < 1.5 µM | Kd (PfHsp90-NTD; read-out: equilibrium constant denoting affinity KD): 0.0199 µM and 0.019 µM
SMILES: Cn1c(=O)ccn([C@@H]2O[C@H](CO)[C@@H](O)[C@H]2O)c1=O [FTN-T5]
average SI ([2]; CHO and HepG2 cell lines): ≥ 30 | IC50 ([2]; Cricetulus griseus): > 50 µM | Mammalian cells (SI) [2]: > 35 | selectivity index (SI) ([3]; HepG2/CHO cells vs PfNF54): ≥ 29 | IC50 ([3]; Homo sapiens): 42.3 µM | HepG2 (SI) [3]: 29

IC50 ([4]; 72 h): 4.86 ± 1.14 µM
SMILES: Nc1nc2c(ncn2[C@H]2C[C@H](F)[C@@H](CO)O2)c(=O)[nH]1 [FTN-T9]
IC50 [2]: > 50 µM | Mammalian cells (SI) [2]: > 10 | IC50 [3]: > 50 µM | HepG2 (SI) [3]: > 10

SMILES: COC1=C2C[C@@H](C)C[C@H](OC)[C@H](O)[C@@H](C)/C=C(\C)[C@H](OC(N)=O)[C@@H](OC)/C=C\C=C(/C)C(=O)NC(=CC1=O)C2=O [Geldanamycin, geldanamycin]
IC50 (Plasmodium): 0.02 µM

SMILES: COc1ccc2c(c1)[nH]c1c(C)nccc12 [Harmine, reference compound]
Kd (PfHsp90-NTD; equilibrium constant denoting affinity KD, SPR, immobilized PfHsp90-NTD): 0.0182 µM | IC50 (P. falciparum 3D7; P. falciparum, ref Shahinas et al., 2010, read-out: In vitro IC50 PfNF54/ Pf3D7): 0.05 µM
